The values below come from patent publication US8450313B2, “2,3-diaryl- or heteroaryl-substituted 1,1,1-trifluoro-2-hydroxypropyl compounds” (Hoffmann-La Roche Inc., priority 2009, dated 2013).

The assay concerns the target T1, full length human recombinant glucocorticoid receptor (Homo sapiens, UniProt P04150).
T1 construct: It contains some partially purified full length human recombinant glucocorticoid receptor; purchased Panvera/Invitrogen PV4302
T1 sequence (P04150 1-777): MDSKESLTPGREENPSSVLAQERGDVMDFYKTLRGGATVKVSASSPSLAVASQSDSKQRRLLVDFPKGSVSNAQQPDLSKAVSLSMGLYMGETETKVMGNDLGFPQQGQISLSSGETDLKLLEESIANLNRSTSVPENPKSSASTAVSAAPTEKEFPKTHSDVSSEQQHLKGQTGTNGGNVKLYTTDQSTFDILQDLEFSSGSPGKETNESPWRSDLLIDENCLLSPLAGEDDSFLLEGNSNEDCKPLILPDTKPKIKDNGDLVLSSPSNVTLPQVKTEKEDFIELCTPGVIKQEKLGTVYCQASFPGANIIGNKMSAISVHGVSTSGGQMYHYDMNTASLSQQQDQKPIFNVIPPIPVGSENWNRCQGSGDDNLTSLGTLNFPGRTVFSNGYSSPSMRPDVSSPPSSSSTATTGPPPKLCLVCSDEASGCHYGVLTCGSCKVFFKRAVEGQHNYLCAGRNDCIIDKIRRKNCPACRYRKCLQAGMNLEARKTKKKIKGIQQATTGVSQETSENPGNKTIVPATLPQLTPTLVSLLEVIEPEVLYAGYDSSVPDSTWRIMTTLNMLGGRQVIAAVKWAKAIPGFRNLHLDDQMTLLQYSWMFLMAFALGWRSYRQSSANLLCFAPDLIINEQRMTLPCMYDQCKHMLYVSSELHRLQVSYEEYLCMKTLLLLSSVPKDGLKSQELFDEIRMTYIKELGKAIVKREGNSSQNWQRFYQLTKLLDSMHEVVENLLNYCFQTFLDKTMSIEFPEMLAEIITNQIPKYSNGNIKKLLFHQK
In words: Glucocorticoid Receptor Binding Assay (Glucocorticoid Receptor Competitor Assay far red kit, fluorescence polarization). To be noted: competition with fluorescent GR ligand Fluormone GS Far Red, 3 hours at 22° C., pH 7.4; Ki calculated from IC50 by Cheng-Prusoff. The procedure, abridged: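 Compounds in serial dilution (from intermediate 4.2% DMSO stock) displace Fluormone GS Far Red from full-length human recombinant GR with stabilizing peptide, pH 7.4, incubated 3 hours at 22° C dark. Polarized fluorescence (610–660 nm) gives IC50 via sigmoidal fit, converted to Ki by Cheng-Prusoff.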

As for `C[C@H](c1ccc(C(=O)NCC(=O)O)cc1Cl)[C@@](O)(c1ccc2oc(=O)n(C)c2c1)C(F)(F)F` (stereo in doubt) [Example 232, {3-Chloro-4-[3,3,3-trifluoro-2-hydroxy-1-methyl-2-(3-methyl-2-oxo-2,3-dihydrobenzooxazol-5-yl)-propyl]-benzoylamino}-acetic acid], the Ki was 92.4 nM. Take `C[C@H](c1ccc(Oc2ccc(C(=O)O)c(F)c2)cc1Cl)[C@@](O)(c1ccc2c(c1)N(C)C(=O)CO2)C(F)(F)F` [Example 57]: the Ki is 1.3 nM.

As to `C[C@H](c1ccc(Oc2cc(C(F)(F)F)c(C(=O)O)cn2)cc1Cl)[C@@](O)(c1ccc2c(c1)N(C)C(=O)CO2)C(F)(F)F` [Example 62], the Ki is 2.1 nM.

For `CC(c1ccc(-c2ccc(C(=O)O)c(F)c2)cc1Cl)C(O)(c1ccc2c(c1)n(C)c(=O)n2C)C(F)(F)F` (stereo not shown) [Example 73, 3′-Chloro-4′-[2-(1,3-dimethyl-2-oxo-2,3-dihydro-1H-benzoimidazol-5-yl)-3,3,3-trifluoro-2-hydroxy-1-methyl-propyl]-3-fluoro-biphenyl-4-carboxylic acid], the Ki was 7.3 nM. Turning to `CC(c1ccc(-c2ccc(OCC(=O)O)cc2)cc1Cl)C(O)(c1ccc2c(c1)n(C)c(=O)n2C)C(F)(F)F` (stereo not shown) [Example 75, {3′-Chloro-4′-[2-(1,3-dimethyl-2-oxo-2,3-dihydro-1H-benzoimidazol-5-yl)-3,3,3-trifluoro-2-hydroxy-1-methyl-propyl]-biphenyl-4-yloxy}-acetic acid], the Ki was 1.9 nM. `CC(c1ccc(O)cc1Cl)C(O)(c1ccc2c(c1)n(C)c(=O)n2C)C(F)(F)F` (stereo not shown) [Example 85, 5-[2-(2-Chloro-4-hydroxy-phenyl)-1-hydroxy-1-trifluoromethyl-propyl]-1,3-dimethyl-1,3-dihydro-benzoimidazol-2-one]: the Ki is 0.8 nM.

Take `CC(c1ccc(Oc2ccc(C(=O)O)cc2F)cc1Cl)C(O)(c1ccc2c(c1)n(C)c(=O)n2C)C(F)(F)F` (stereo not shown) [Example 86, 4-{3-Chloro-4-[2-(1,3-dimethyl-2-oxo-2,3-dihydro-1H-benzoimidazol-5-yl)-3,3,3-trifluoro-2-hydroxy-1-methyl-propyl]-phenoxy}-3-fluoro-benzoic acid]: the inhibition constant (Ki) was 2.7 nM.

For the molecule `CC(c1ccc(Oc2ccc(C(=O)O)cc2Cl)cc1Cl)C(O)(c1ccc2c(c1)n(C)c(=O)n2C)C(F)(F)F` (stereo not shown) [Example 87, 3-Chloro-4-{3-chloro-4-[2-(1,3-dimethyl-2-oxo-2,3-dihydro-1H-benzoimidazol-5-yl)-3,3,3-trifluoro-2-hydroxy-1-methyl-propyl]-phenoxy}-benzoic acid], the Ki was 3.7 nM. With `CC(c1ccc(Oc2ccc(F)c(C(=O)O)c2)cc1Cl)C(O)(c1ccc2c(c1)n(C)c(=O)n2C)C(F)(F)F` (stereo not shown) [Example 91, 5-{3-Chloro-4-[2-(1,3-dimethyl-2-oxo-2,3-dihydro-1H-benzoimidazol-5-yl)-3,3,3-trifluoro-2-hydroxy-1-methyl-propyl]phenoxy}-2-fluoro-benzoic acid] the figure was 0.3 nM; with `C[C@@H](c1ccc(-c2ccc(C(=O)O)c(F)c2)cc1Cl)[C@](O)(c1ccc2oc(=O)n(C)c2c1)C(F)(F)F` [Example 119, 3′-Chloro-3-fluoro-4′-[(1S,2S)-3,3,3-trifluoro-2-hydroxy-1-methyl-2-(3-methyl-2-oxo-2,3-dihydro-benzooxazol-5-yl)-propyl]-biphenyl-4-carboxylic acid], 0.3 nM; with `C[C@H](c1ccc(-c2ccc(C(=O)O)c(F)c2)cc1Cl)[C@@](O)(c1ccc2oc(=O)n(C)c2c1)C(F)(F)F` [Example 120, 3′-Chloro-3-fluoro-4′-[(1R,2R)-3,3,3-trifluoro-2-hydroxy-1-methyl-2-(3-methyl-2-oxo-2,3-dihydro-benzooxazol-5-yl)-propyl]-biphenyl-4-carboxylic acid], 46 nM. With `CC(c1ccc(Oc2ccc(C(=O)O)c(Cl)c2)cc1Cl)C(O)(c1ccc(C#N)cc1)C(F)(F)F` (stereo not shown) [Example 156, 2-Chloro-4-{3-chloro-4-[2-(4-cyano-phenyl)-3,3,3-trifluoro-2-hydroxy-1-methyl-propyl]-phenoxy}-benzoic acid], the Ki is 192 nM. `C[C@H](c1ccc(Oc2ccc(C(=O)O)c(Cl)c2)cc1Cl)[C@@](O)(c1ccc2c(c1)N(C)C(=O)CO2)C(F)(F)F` [Example 218, 2-Chloro-4-{3-chloro-4-[(1R,2R)-3,3,3-trifluoro-2-hydroxy-1-methyl-2-(4-methyl-3-oxo-3,4-dihydro-2H-benzo[1,4]oxazin-6-yl)-propyl]-phenoxy}-benzoic acid]: the Ki is 119 nM. Consider `C[C@@H](c1ccc(Oc2ccc(C(=O)O)c(Cl)c2)cc1Cl)[C@](O)(c1ccc2c(c1)N(C)C(=O)CO2)C(F)(F)F` [Example 219, 2-Chloro-4-{3-chloro-4-[(1S,2S)-3,3,3-trifluoro-2-hydroxy-1-methyl-2-(4-methyl-3-oxo-3,4-dihydro-2H-benzo[1,4]oxazin-6-yl)-propyl]-phenoxy}-benzoic acid], for which the Ki was 0.8 nM. As to `C[C@H](c1ccc(Oc2ncc(C(=O)O)cc2Cl)cc1Cl)[C@@](O)(c1ccc2c(c1)N(C)C(=O)CO2)C(F)(F)F` [Example 223, 5-Chloro-6-{3-chloro-4-[(1R,2R)-3,3,3-trifluoro-2-hydroxy-1-methyl-2-(4-methyl-3-oxo-3,4-dihydro-2H-benzo[1,4]oxazin-6-yl)-propyl]-phenoxy}-nicotinic acid], the Ki was 552 nM.

`C[C@@H](c1ccc(Oc2ncc(C(=O)O)cc2Cl)cc1Cl)[C@](O)(c1ccc2c(c1)N(C)C(=O)CO2)C(F)(F)F` [Example 224, 5-Chloro-6-{3-chloro-4-[(1S,2S)-3,3,3-trifluoro-2-hydroxy-1-methyl-2-(4-methyl-3-oxo-3,4-dihydro-2H-benzo[1,4]oxazin-6-yl)-propyl]-phenoxy}-nicotinic acid]: the Ki is 0.8 nM.

By Ki is commonly meant the dissociation constant of the complex between target and ligand, obtained from inhibition or displacement.
